Laboratory results from patent US9517988B2 (Sichuan Haisco Pharmaceutical Co., Ltd., priority 2013, dated 2016).

Key:
[1] = Pharmacokinetic experiment on rats; assay type: in vivo, SD rats; conditions: male, Sprague-Dawley, rat, plasma; Intravenous Injection into Rats (1 mg/kg)
Procedure: 3 male SD rats, each weighing 180 to 240 g, were fasted overnight with water access. A 1 mL/kg solution of the compound was formulated with 10% DMA, 20% solutol HS-15 (30%, w/v) and 70% physiological saline. Blood was sampled before administration and 2 min, 4 min, 8 min, 12 min, 15 min, 30 min, 1 h, 1.5 h and 2 h after administration. Blood samples were centrifuged at 5500 rpm for 10 min, and plasma was collected and stored at −40° C. 10 μl rat plasma from each time point was added to a 200 μl acetonitrile solution containing an internal standard and mixed, followed by 1-min vortexing and 18-min centrifugation at 3700 rpm. Then 70 μl supernatant was mixed with 70 μl water, and 10 μl of the mixture was analyzed by LC-MS/MS. Major pharmacokinetic parameters were subjected to a non-compartment analysis with the software WinNonlin 6.3.

ICR mice [2] = assay: Righting reflex experiment on mice; conditions: for ED50: Mus musculus, iv; for Anesthesia induction time / Anesthesia maintenance time / HD7 / MTD: mice; for Anesthesia induction time / Anesthesia maintenance time: intravenous injection; for Anesthesia induction time: end of administration until loss of righting reflex; for Anesthesia maintenance time: loss until recovery of righting reflex; for SI: safety index, LD5/ED95, mice; for TI: therapeutic index, LD50/ED50, mice; for HD7: dose required to cause a 7-min anesthesia; for MTD: maximum dose causing 100% loss of righting reflex without death
Procedure: (§1) LD5 (5% lethal dose): dose required to cause 5% of mice to die in a test.
(§2) If a normal animal was able to immediately turn its body to normal upright position after being pushed over or made lying on its back, such a reflex was determined as the righting reflex. Otherwise, loss of the righting reflex and the time of loss were recorded, and a reflex recovery time was recorded when the animal restored the righting reflex. The period from finishing of drug administration until loss of the righting reflex was recorded as the anesthesia induction time, and the period from loss of the righting reflex until recovery of the righting reflex was recorded as the anesthesia maintenance time.
(§3) TI (therapeutic index, i.e. LD50/ED50), SI (safety index, i.e. LD5/ED95).
(§4) MTD (maximum tolerated dose): the maximum dose able to cause 100% to loss the righting index without death.
(§5) Indicators such as median effective dose (ED50), median lethal dose (LD50), therapeutic index (TI, i.e. LD50/ED50), safety index (SI, i.e. LD5/ED95), anesthesia induction time, anesthesia maintenance time, and maximum tolerated dose (MTD) were used to evaluate the effect and safety of anesthesia. […] After adapting to the laboratory environment, laboratory animals were fasted for 12 hours. On the next day, administration was carried out at 10 mg/kg body weight. Upon intravenous injection, the time of loss of the righting reflex was recorded. The period from finishing of drug administration until loss of the righting reflex was recorded as the anesthesia induction time, and the period from loss of the righting reflex until recovery of the righting reflex was recorded as the anesthesia maintenance time. The anesthesia induction time and the anesthesia maintenance time were used to indicate how strong an anesthetic effect was. Meanwhile, the dose required to cause a 7-min anesthesia (HD7) was measured and used to evaluate relative efficacy.

[3] = Righting reflex experiment on mice; conditions: both, ICR, mouse, in vivo; for MTD: intravenous; for LD50: iv
Procedure: as §1, §2, §3, §4, §5

ICR mice [4] = assay: Righting reflex experiment on mice with prodrugs; assay type: in vivo; conditions: for ED50: Mus musculus, prodrugs formulated with physiological saline, read-out: ED50; for ED50 / Anesthesia induction time / Anesthesia maintenance time: intravenous injection; for SI: safety index, LD5/ED95, mice; for TI: therapeutic index, LD50/ED50, mice
Procedure: (§6) After adapting to the laboratory environment, the SPF-grade ICR mice were fasted for 12 hours.

[5] = Righting reflex experiment on mice with prodrugs; assay type: in vivo; conditions: both sexes, ICR, mouse, in vivo, mice; for MTD: intravenous, prodrugs; for LD50: intravenous injection, prodrugs in physiological saline
Procedure: as §6

[6] = Pharmacokinetic analysis with prodrugs in rats; assay type: in vivo, SD rats; conditions: male, Sprague-Dawley, rat, plasma; Intravenous Injection into Rats (10 mg/kg); analyte: prodrug
Procedure: 3 male SD rats, each weighing 180 to 240 g, were fasted overnight with water access. After a single intravenous administration of a prodrug at 10 mg/kg to rats, the plasma concentrations of the prodrug and the active form were each measured by LC-MS/MS, and the pharmacokinetic parameters were analyzed.

SD rats = assay: Efficacy experiment on rats with prodrugs; assay type: in vivo; conditions: for ED50: Rattus norvegicus, non-linear fitting; for ED50 / Anesthesia induction time / Anesthesia maintenance time: SD rats, tail vein
Procedure: (§7) This experiment selected SD rats, each weighing 180 to 200 g. The rats were randomized, with 10 animals per group, half male and half female. […] The time of administration, time of loss of the righting reflex, time of recovery of the righting reflex, and time of walking were recorded. Adverse effects shown by the rats after administration were also recorded.
(§8) Time of loss of the righting reflex: the righting reflex is lost; a rat made lying on its back can maintain the lying for a period of 60 s;
(§9) Time of recovery of the righting reflex: the righting reflex ability is restored; a rat made lying on its back rights in less than 2 s;
(§10) Time of walking: spontaneous forwarding moving occurs, and muscle tension of the limbs recovers.
(§11) Using GraphPad Prism 5, ED50 and LD50 values were calculated from a non-linear fitting of number of anesthetic or dead animals resulting from various doses.

[7] = Efficacy experiment on rats with prodrugs; assay type: in vivo; conditions: both sexes, Sprague-Dawley, rat, in vivo, intravenous, SD rats; for LD50: tail vein, non-linear fitting
Procedure: as §7, §8, §9, §10, §11

SMILES	AUC(0-t) [1]	clearance [1]	half-life [1]	ED50 (ICR mice [2])	Anesthesia induction time (ICR mice [2])	Anesthesia maintenance time (ICR mice [2])	SI (ICR mice [2])	TI (ICR mice [2])	MTD [3]	LD50 [3]	HD7 (ICR mice [2])	further results
COc1cccc(C(C)C2CC2)c1O (stereo not shown) [Compound 8, 2-(1-cyclopropylethyl)-6-methoxy-phenol]	132 ng·h/mL	119 mL/min/kg	48 min	7.3 mg/kg	<15.0 s	394.8 s	7.0	9.1	40 mg/kg	67 mg/kg		
CC(c1cccc(C(C)C2CC2)c1O)C1CC1 (stereo not shown) [Compound 13, 2,6-bis(1-cyclopropylethyl)phenol]	187 ng·h/mL	87.5 mL/min/kg	12 min	3.6 mg/kg	<15.0 s	554.4 s	3.0	5.5		20 mg/kg	7.0 mg/kg	MTD (ICR mice [2]): 10.0 mg/kg
C[C@@H](c1cccc([C@H](C)C2CC2)c1O)C1CC1 [Compound 18, 2,6-bis[(1R)-1-cyclopropylethyl]phenol]				5.8 mg/kg	<15.0 s	1031.6 s	3.5	7.5	20 mg/kg	43.6 mg/kg	2.5 mg/kg	
C[C@H](c1cccc([C@H](C)C2CC2)c1O)C1CC1 [Compound 19, 2-[(1S)-1-cyclopropylethyl]-6-[(1R)-1-cyclopropylethyl]phenol]				1.5 mg/kg	<15.0 s	754.4 s	3.8	4.1	5 mg/kg	6.3 mg/kg		
C[C@H](c1cccc([C@@H](C)C2CC2)c1O)C1CC1 [Compound 20, 2,6-bis[(1S)-1-cyclopropylethyl]phenol]				15.7 mg/kg	<15.0 s	1207.7 s	4.4	9.6		150 mg/kg		MTD (ICR mice [2]): 90.0 mg/kg
CC[C@H](C)c1cccc([C@H](C)C2CC2)c1O [Compound 25, 2-[(1R)-1-cyclopropylethyl]-6-[(1S)-1-methylpropyl]phenol]	78.1 ng·h/mL	208 mL/min/kg	24 min	2 mg/kg	<15.0 s	1048.0 s	4.6	7.1	10 mg/kg	14.3 mg/kg	4.0 mg/kg	
CC[C@@H](C)c1cccc([C@H](C)C2CC2)c1O [Compound 26, 2-[(1R)-1-cyclopropylethyl]-6-[(1R)-1-methylpropyl]phenol]	124 ng·h/mL	134 mL/min/kg	30 min	1.3 mg/kg	<15.0 s	690.0 s	2.4	6.4	4 mg/kg	8.3 mg/kg	2.5 mg/kg	
CC[C@H](C)c1cccc([C@@H](C)C2CC2)c1O [Compound 28, 2-[(1S)-1-cyclopropylethyl]-6-[(1S)-1-methylpropyl]phenol]	143 ng·h/mL	115 mL/min/kg	18 min	5.3 mg/kg	<15.0 s	885.9 s	3.0	6.9	15 mg/kg	36.8 mg/kg	8.0 mg/kg	
CC[C@@H](C)c1cccc([C@@H](C)C2CC2)c1O [Compound 29, 2-[(1S)-1-cyclopropylethyl]-6-[(1R)-1-methylpropyl]phenol]	114 ng·h/mL	145 mL/min/kg	24 min	10.1 mg/kg	<15.0 s	1149.5 s	3.7	6.4	40 mg/kg	65.4 mg/kg		
CC(C)c1cccc([C@H](C)C2CC2)c1OP(=O)(O)O [Compound 46, [[2-[(1R)-1-cyclopropylethyl]-6-isopropyl-phenoxy]-sodiooxy-phosphoryl]oxysodium]												ED50 (ICR mice [4]; mice): 72.6 mg/kg; Anesthesia induction time (ICR mice [4]; mice, prodrugs): 167.0 s; Anesthesia maintenance time (ICR mice [4]; mice, prodrugs): 2204.6 s; SI (ICR mice [4]; prodrugs): 2.4; TI (ICR mice [4]; prodrugs): 3.1; MTD [5]: 200 mg/kg; LD50 [5]: 225 mg/kg; AUC(0-t) [6]: 22400 ng·h/mL; clearance [6]: 6.1 mL/min/kg; half-life [6]: 54 min
CC(C)c1cccc([C@H](C)C2CC2)c1OCOP(=O)([O-])[O-].[Na+].[Na+] [Compound 52]												ED50 (SD rats): 12.5 to 15 mg/kg; Anesthesia induction time (SD rats): 92.8 s; Anesthesia maintenance time (SD rats): 1946.3 s; MTD [7]: 30 mg/kg; LD50 [7]: 61.4 mg/kg; ED50 (ICR mice [4]; mice): 20.4 mg/kg; Anesthesia induction time (ICR mice [4]; mice, prodrugs): 73.0 s; Anesthesia maintenance time (ICR mice [4]; mice, prodrugs): 1830.2 s; MTD (ICR mice [4]; mice, prodrugs): 60.0 mg/kg; SI (ICR mice [4]; prodrugs): 3.3; TI (ICR mice [4]; prodrugs): 4.2; LD50 [5]: 86.2 mg/kg; AUC(0-t) [6]: 15900 ng·h/mL; clearance [6]: 10.5 mL/min/kg; half-life [6]: 24 min
CC(C)c1cccc([C@H](C)C2CC2)c1OCOC(=O)[C@H](Cc1ccccc1)NC(=O)OC(C)(C)C [Compound 61, [2-[(1R)-1-cyclopropylethyl]-6-isopropyl-phenoxy]methyl(2S)-2-(tertbutoxycarbonylamino)-3-phenyl-propanoate]												ED50 (SD rats): 6.5 mg/kg; Anesthesia induction time (SD rats): 0.0 s; Anesthesia maintenance time (SD rats): 1474.9 s; ED50 and efficacy compared with propofol (SD rats; rats, prodrugs): smaller ED50 and higher efficacy than propofol; SI (SD rats; safety index, LD5/ED95, rats): 6.3; TI (SD rats; therapeutic index, LD50/ED50, rats): 9.4; MTD [7]: 40 mg/kg; LD50 [7]: 60.8 mg/kg; ED50 (ICR mice [4]; mice): 6.1 mg/kg; Anesthesia induction time (ICR mice [4]; mice, prodrugs): 17.5 s; Anesthesia maintenance time (ICR mice [4]; mice, prodrugs): 1109.2 s; ED50 and efficacy compared with propofol (ICR mice [4]; mice, prodrugs): smaller ED50 value and higher efficacy than propofol; SI (ICR mice [4]; prodrugs): 3.7; TI (ICR mice [4]; prodrugs): 14.4; MTD [5]: 40 mg/kg; LD50 [5]: 87.4 mg/kg
